# Active and inactive are the calls of the source. The calls are words filed in the database; no cut-off is given here.
# System: iNKT
# Experiment: Stimulation of human iNKT cell proliferation
# Assay type: functional, cell-based
row,Structure (SMILES),Activity
1,CCCCCCCCCCCCCCCCCCCCCCCCCC(=O)N[C@@H](/C=N/O[C@H]1O[C@H](CO)[C@H](O)[C@H](O)[C@H]1O)[C@H](O)[C@H](O)CCCCCCCCCCCCCC,Active
2,CCCCCCCCCCCCCCCCCCCCCCCCCC(=O)N[C@@H](/C=N/O[C@@H]1O[C@H](CO)[C@H](O)[C@H](O)[C@H]1O)[C@H](O)[C@H](O)CCCCCCCCCCCCCC,Active

# — ChEMBL document CHEMBL1177796, “Efficient synthesis of galactosylceramide analogues for iNKT cell stimulation” (Bioorg Med Chem Lett, 2010)
